Where a SMILES comes first, the peptide text is derived from it. [ ]: non-standard residue; d: D form. NMeI = CC[C@H](C)[C@H](NC)C(=O)O; NMeD = CN[C@@H](CC(=O)O)C(=O)O; NMeV = CN[C@H](C(=O)O)C(C)C; Pip = O=C(O)[C@@H]1CCCCN1; dLac = C[C@@H](O)C(=O)O

The source of these data is patent US5514648A, “Fungicidally active compounds” (priority 1990, dated 1996).

Data set [1] can be described thus: Toxicology IC50, ATP. To be noted: estimated. As for the experimental part: Based on these tests the IC50 values for BK 202 were estimated as: ATP >10 μg/ml;
Data set [2] relates to Monilinia fructigena. Briefly: Activity against Monilinia fructigena on apples (Golden Delicious). It is filed as in vivo. To be noted: for number of infected wounds (maximum 20): 5 days, 0 mg ai/l gives 20. How it is done: Apples were surface sterilized, each punctured 5 times with a nail 2.1 mm in diameter, dipped in suspensions containing 0, 0.5, 5, 50, and 500 mg a.i. per 1. The active ingredient was (i) BK 202, (ii) benomyI(BENLATE®), (iii) iprodione(ROVRAL®). Four apples were punctured and treated with each concentration of the three pesticides giving a total of 20 wounds per concentration. The fruits were placed in plastic containers in rows with the wounds facing upwards. After 24 hours, the wounded areas were sprayed with a suspension of Monilinia fructigena containing 1×10^5 spores per ml. The containers were then covered with polyethylene bags and kept at room temperature (approximately22° C.).
After 5 days the effects were assessed by counting the number of infected wounds (maximum 20 infected wounds per treatment).

Data set [3] deals with S. sclerotiorum. Briefly: Fungicidal activity, mycelial growth on potato dextrose agar. In kind it is cell-based, Sclerotinia sclerotiorum. To be noted: in as low concentrations as 0.0016 μg/ml, 3 to 6 days. As for the experimental part: (§1) Experiments were carried out to determine the potency of the compound of formula IV towards various fungi. The active ingredient was dissolved in 60% ethanol and added to cooled potato dextrose agar to give final concentrations of 25, 5, 1, 0.2, 0.04 and 0.0016 μg a.i. per ml agar, respectively. Control dishes contained no active ingredient.
(§2) 10 ml Agar was poured into 9 cm petri dishes and each concentration was inoculated with actively growing mycelium of the fungal isolates tested for. The dishes were incubated at the optimum temperature for growth of the isolates for 3 to 6 days after which time the growth was measured in mm and compared to the controls.
(§3) The test isolates covered a broad range of fungi within the Oomycetes, the Ascomycetes, the Basidiornycetes, the Deuterornycetes, and the Zygomycetes.

Data set [4] has as its system plants. Briefly: Phytotoxic activity on plants. In kind it is in vivo. To be noted: at the concentrations used in Examples 1 to 7.
The subject of data set [5] is Botrytis cinerea. Briefly: Field trial, Botrytis cinerea on strawberries (Senga-Sengana). Particulars: 100, 300, and 900 g a.i./ha, four sprayings. It is filed as in vivo. An excerpt: Field trial performed in Funen, Denmark, in accordance with the EPPO guidelines (Guideline for the Biological Evaluation of Fungicities. Botrytis cinerea on Strawberries). The plot size was 20 m^2 and three replicates were used. The active compound was used in a test formulation containing approximately 10% active ingredient (a.i.). Three concentrations of active compound were applied: 100, 300, and 900 g a.i./ha. The spraying volume was 1200 l/ha. The strawberries were sprayed at the following growth stages: T1, onset of flowering; T2 : 10% flowering; T3, 50% flowering; and T4, 80% flowering. The commercial fungicide ROVRAL® was used as standard reference. The assessment was performed by counting and weighing healthy and infected strawberries, respectively.

A short description of data set [6]: Temperature and pH stability (HPLC). In kind it is physicochemical. To be noted: buffer, 16 hours. How it is done: Procedure: The compound BK202 was solubilized in buffer at the pHs indicated in FIG. 1, and then placed at 25°-55° C. for 16 hours. The buffers used were phosphate-citrate (T. C. McIlvaine, J. Biol. Chem. 49,183(1921), in the pH range 2.5-7 and from pH 7-9.5 is used TRIS 0.05 M. After 16 hours, the samples were filtered on a membrane filter 0.45 μm, and then analyzed by the HPLC method.
However, this may reside in experimental error.
Column: Spherisorb Hexyl 5 μm, 140 mm×4.6 mm
Eluent: 55% Acetonitrile +0.1% Trifluor acetic Acid
Retention time: ca. 6.3 minutes

Data set [7] in a line: in vitro testing of dermal irritation (Skintex). The source says:
The toxicity of BK 202 was investigated in the following tests using the compound of formula IV in crystaline form: […]
Ames spot tests and in vitro testing of dermal irritation (Skintex®).

In data set [8] the test system is P. digitatum. Briefly: Fungicidal activity, mycelial growth on potato dextrose agar. It is filed as cell-based, Penicillium digitatum. To be noted: in as low concentrations as 0.0016 μg/ml, 3 to 6 days. As for the experimental part: as §1, §2, §3
In data set [9] the test system is A. pisi. The description is as above. In kind it is cell-based, Ascochyta pisi. Particulars: in as low concentrations as 0.0016 μg/ml, 3 to 6 days. How it is done:
as §1, §2, §3

Data set [10] has as its system Botrytis cinerea. Nature of the data set: Field trial, Botrytis cinerea on grapes (Ugni Blanc). It is filed as in vivo. To be noted: 100, 300, and 900 g a.i./ha, three sprayings. An excerpt: Field trial performed in Bordeaux, France, in accordance with CEB Method No. 37. A plot consisted of 15 plants in one row and six replicates were used. The active compound was used in a test formulation containing approximately 10% active ingredient (a.i.). Three concentrations of active compound were applied: 100, 300, and 900 g a.i./ha. The water volume was 300 l/ha. The grapes were sprayed at the following growth stages: T1, end of formation of bunches of grapes; T2, beginning of ripening of grapes; and T3, 3 to 4 weeks before harvest. The commercial fungicides […]® and BASULTRA® were used as standard references. The assessment was performed by estimating the intensity and frequency of the Botrytis cinerea attack after the appearance of the disease.

Data set [11] concerns A. alternata. Nature of the data set: Fungicidal activity, mycelial growth on potato dextrose agar. It is filed as cell-based, Alternaria alternata. Particulars: 25 to 0.0016 μg a.i. per ml agar, 3 to 6 days. How it is done:
as §1, §2, §3

Data set [12] has as its system Botrytis cinerea. Nature of the data set: Activity against Botrytis cinerea on tomato plants. It is filed as in vivo. Particulars: liquid suspension 0.035 mg active ingredient per ml; inoculated after 24 hours; 6 days incubation; controls all overgrown. As for the experimental part:
Tomato plants (variety "First in Field", 3 weeks old) were treated with a liquid suspension containing 0.035 mg active ingredient per ml. The plants were kept 24 hours in a green house to dry before they were inoculated with a spore suspension containing 10^5 Botrytis cinerea spores per ml in 25% grapefruit juice. […] Control plants that were treated as above except for the application of the active ingredient in suspension were all overgrown with Botrytis cinerea.

Data set [13] has as its system F. lycopersici. Nature of the data set: Fungicidal activity, mycelial growth on potato dextrose agar. In kind it is cell-based, Fusarium lycopersici. Particulars: 25 to 0.0016 μg a.i. per ml agar, 3 to 6 days. As for the experimental part:
as §1, §2, §3

Data set [14] relates to Oornycetous species. Described as above. It is filed as cell-based, Oomycetes. Particulars: 25 to 0.0016 μg a.i. per ml agar. How it is done: as §1, §2, §3
Data set [15] relates to Botrytis cinerea. Nature of the data set: Activity against Botrytis cinerea on apples (Golden Delicious). It is filed as in vivo. Particulars: suspension 9.8 μg active ingredient per ml; inoculated the following day; one week, 18°-20° C.; untreated fruits 100% infected. How it is done: Artificially injured apples were sprayed with a suspension containing 9.8 μg active ingredient per ml.On the following day the treated fruits were inoculated with a spore suspension of the fungus containing 1×10^5 /ml, and incubated for a week at high air humidity and 18°-20° C. At the evaluation the infected places of injury were counted and from that the fungicidal effect of the test substance evaluated. […] The untreated fruits were 100% infected with Botrytis cinerea.

As for `CC[C@H](C)[C@H]1C(=O)NCC(=O)N(C)[C@@H](C(C)C)C(=O)N[C@@H](Cc2ccc(OC)cc2)C(=O)O[C@H](C)C(=O)N2CCCC[C@H]2C(=O)N(C)[C@@H](C(C)C)C(=O)N[C@@H](C(C)C)C(=O)N(C)[C@@H](CC(=O)O)C(=O)N(C)[C@@H](C(C)C)C(=O)N1C` [BK 202, cyclo- Pec-MeVal-Val-MeAsp-MeVal-MeIle-Gly-MeVal-TyrOMe-D-Lact!] (cyclo(G[NMeV]Y(Me)[dLac][Pip][NMeV]V[NMeD][NMeV][NMeI])), the “IC50, ATP” value in [1] was above 10 µg/mL. Further, the “number of infected wounds (maximum 20)” value in data set [2] (0.5 mg ai/l dip) came to 18; in data set [2] (5.0 mg ai/l dip), 14; in data set [2] (50 mg ai/l dip), 7; in data set [2] (500 mg ai/l dip) it was 1. Moreover, in data set [2] (versus BENLATE® and ROVRAL®), the “activity towards M. fructigena in comparison to the two commercial fungicides tested” value is recorded as “superior”. Further, the inhibition of growth entry in [3] was “very strong”; in data set [8], “very strong”; in [9], “very strong”; in [11], “weaker”; in data set [13], “weaker”. Further, the phytotoxic activity entry in [4] is on record as “no phytotoxic activity has been observed”. The “fungicidal effect (degree of infection, FIG. 8) compared to ROVRAL®” value in data set [5] is on record as “superior”. In addition, in data set [6] (25°-55° C.), the “stability at pH values above 8” value is recorded as “decreases rapidly”. The “stability optimum (pH)” value in data set [6] (25°-55° C., stability seems independent of temperature) is recorded as around 7. Further, the “stability at pH values below 7” value in [6] (except at 25° C., where the decrease seems rapid (possibly experimental error)) was “decreases slowly”. The “dermal irritation score, Skintex® test” value in data set [7] was “lowest possible irritation”. Also, the “fungicidal effect (intensity of infection, FIG. 9) compared to both RONILAN® and BASULTRA®” value in [10] was “superior”. Also, the “attack from the fungus on tomato plants” value in data set [12] was “No attack from the fungus was observed”. Also, the fungicidal activity result in data set [14] was “practically no activity”. In addition, the “fungicidal effect on injured apples” value in data set [15] is “prevented the growth of fungus completely”.
